Test results as given in patent US20140221206A1, “HERBICIDAL COMPOSITION COMPRISING POLYMERIC MICROPARTICLES CONTAINING A HERBICIDE” (SYNGENTA LIMITED, priority 2011, published 2014).

Test system: AVEFA, LOLMU, ALOMY, SETVI
Assay: Assay 3—Glasshouse assay for pinoxaden antagonism (grass species)
Settings: used with Axial (pinoxaden) + Adigor adjuvant
Method: A suitable glasshouse assay/test, to determine whether or not the “first herbicide”, when in a salt-free form and when not contained within polymeric microparticles, antagonises the herbicidal activity of pinoxaden, is as follows.
The troughs are watered appropriately and are not supplied with additional nutrients throughout the course of the test. […] The pinoxaden is typically used in a commercial formulation applied with recommended tank-mix adjuvants.
Crop injury (e.g. to wheat) is recorded at both 7 and 14-16 days after application; weed efficacy is only recorded at 14-16 days after application. A visual, 0-100% assessment scale is used, where 0%=no visible effects and 100%=complete plant destruction.
For example, dicamba can be applied at ca. 240 g/ha (or alternatively at from 100 to 140, e.g. ca. 120, g/ha), measured as the free acid; MCPA and/or 2,4-D can be applied at ca. 500 g/ha, measured as the free acid.
Alternatively, application rates may be identified from journal, book and/or patent publications for the specific active ingredient under test.
Antagonism of pinoxaden may then be determined by the application of Colby's formula:
(Observed 1+Observed 2)−((Observed 1×Observed 2)/100),
Where observed values are smaller than the calculated expected value, antagonism is deemed to have occurred.

SMILES	antagonism of pinoxaden grass-herbicidal activity (in words)
Cc1cc(Cl)ccc1OCC(=O)O [MCPA acid, (4-chloro-2-methylphenoxy)acetic acid]	some reductions in pinoxaden herbicidal activity on the grassy weed species AVEFA, ALOMY and LOLMU
COc1c(Cl)ccc(Cl)c1C(=O)O [dicamba acid, 3,6-dichloro-2-methoxybenzoic acid]	some reductions in pinoxaden herbicidal activity on the grassy weed species AVEFA, ALOMY and LOLMU
O=C(O)COc1ccc(Cl)cc1Cl [2,4-D acid, (2,4-dichlorophenoxy)acetic acid]	some reductions in pinoxaden herbicidal activity on the grassy weed species AVEFA, ALOMY, SETVI and LOLMU
